Test results from patent publication US8362033B1, “Compounds and methods to dysregulate CA2+ homeostasis for cancer treatment” (University of South Florida, priority 2008, dated 2013).
Where two headings read alike, the source gives them in different places.

Experiments:
U937 cells [1] = assay: Cell death by ER stressors in suspension or fibronectin-adhered U937 cells; type: cell-based; details: for Cell death in suspension and fibronectin adhered tumor cells: FIGS. 2(a)-(c); for Difference in viability between suspension and fibronectin-adherent cells: concentration range tested
Method: FIGS. 2(a)-(c) are graphs showing agents which evoke ER stress overcome cell adhesion mediated drug resistance in U937 cells. Percent of specific cell death induced in U937 cells in suspension (Suspension) or following adhesion to plates coated in fibronectin (Fibronectin) as a result of incubation in (A) tunicamycin, (B) thapsigargin, or (C) brefeldin A at the indicated concentrations.

8226 cells = assay: Fura-2 intracellular Ca2+ fluorometry in 8226 cells; type: cell-based, human
Method: (§1) Fura-2 loading was carried out incubating the plated cells for 1 hour at room temperature in physiological saline solution (PSS) consisting of (in mM): 140 NaCl, 3 KCl, 2.5 CaCl2, 1.2 MgCl2, 7.7 glucose and 10 HEPES (pH to 7.2 with NaOH), which also contained 1 μM of the membrane permeable ester form of fura-2, acetoxymethylester (fura-2 AM) fura-2 acetoxymethylester (fura-2 AM, +0.1% DMSO) and 0.1% dimethyl sulfoxide (DMSO). The coverslips were then washed in PSS (fura-2-AM free) prior to the experiments being carried out.
(§2) A DG-4 high-speed wavelength switcher (Sutter Instruments Co., Novato, Calif.) was used to apply alternating excitation light, and fluorescent emission was captured using a Sensicam digital CCD camera (Cooke Corporation, Auburn Hills, Mich.) and recorded with Slidebook 3.0 software (Intelligent Imaging Innovations, Denver, Colo.).

8226/R5 cells = assay: Fura-2 intracellular Ca2+ fluorometry in tipifarnib-resistant 8226/R5 cells; type: cell-based, human; details: 5 μM tipifarnib with 100 μM 2-APB
Method: as §1, §2

U937 cells [2] = assay: MTT cytotoxicity / growth rate assay; type: cell-based
Method: Cytotoxicity analysis was determined by using the 3-(4,5-dimethylthiazol-2-yl)-2,5-diphenyltetrazolium bromide (MTT) dye reduction assay as previously described (Damiano J S, et al. Cell adhesion mediated drug resistance (CAM-DR): role of integrins and resistance to apoptosis in human myeloma cell lines. Blood. 1999 Mar. 1; 93(5):1658-67). For all cytotoxicity studies cells were exposed to both calcium modulating agents and tipifarnib simultaneously for 72 hours. After 72 hours at 37° C., 50 μl of MTT (Sigma Chemical) was added to each well and cells were incubated for an additional four hours. Plates were spun for 5 minutes at 1200 rpm in a Sorvall RT6000D table top centrifuge (Asheville, N.C.), supernatants were removed, and water-insoluble product was dissolved in 100 μl of 100% DMSO. Plates were shaken for 30 seconds and absorbance read at 540 nm on a Wallac Victor-2 1420 Multilabel Counter (PerkinElmer, Torrance, Calif.). All experiments were done in triplicate.
The effects of the Ca^2+ channel inhibition, using La^3+ and Gd^3+, were tested on survival of U937 cells.

TRPM2 = details: cited from earlier work
TRPM7 = target: T1, TRPM7 (Homo sapiens, UniProt Q96QT4); details: cited from earlier work; for Inhibition of TRPM7 channels at 10 μM / Concentration required to inhibit TRPM7: HEK-293 cells
T1 construct: host or cells: HEK-293 (heterologous expression, in the cited studies)
T1 sequence (Q96QT4 whole entry, species assumed): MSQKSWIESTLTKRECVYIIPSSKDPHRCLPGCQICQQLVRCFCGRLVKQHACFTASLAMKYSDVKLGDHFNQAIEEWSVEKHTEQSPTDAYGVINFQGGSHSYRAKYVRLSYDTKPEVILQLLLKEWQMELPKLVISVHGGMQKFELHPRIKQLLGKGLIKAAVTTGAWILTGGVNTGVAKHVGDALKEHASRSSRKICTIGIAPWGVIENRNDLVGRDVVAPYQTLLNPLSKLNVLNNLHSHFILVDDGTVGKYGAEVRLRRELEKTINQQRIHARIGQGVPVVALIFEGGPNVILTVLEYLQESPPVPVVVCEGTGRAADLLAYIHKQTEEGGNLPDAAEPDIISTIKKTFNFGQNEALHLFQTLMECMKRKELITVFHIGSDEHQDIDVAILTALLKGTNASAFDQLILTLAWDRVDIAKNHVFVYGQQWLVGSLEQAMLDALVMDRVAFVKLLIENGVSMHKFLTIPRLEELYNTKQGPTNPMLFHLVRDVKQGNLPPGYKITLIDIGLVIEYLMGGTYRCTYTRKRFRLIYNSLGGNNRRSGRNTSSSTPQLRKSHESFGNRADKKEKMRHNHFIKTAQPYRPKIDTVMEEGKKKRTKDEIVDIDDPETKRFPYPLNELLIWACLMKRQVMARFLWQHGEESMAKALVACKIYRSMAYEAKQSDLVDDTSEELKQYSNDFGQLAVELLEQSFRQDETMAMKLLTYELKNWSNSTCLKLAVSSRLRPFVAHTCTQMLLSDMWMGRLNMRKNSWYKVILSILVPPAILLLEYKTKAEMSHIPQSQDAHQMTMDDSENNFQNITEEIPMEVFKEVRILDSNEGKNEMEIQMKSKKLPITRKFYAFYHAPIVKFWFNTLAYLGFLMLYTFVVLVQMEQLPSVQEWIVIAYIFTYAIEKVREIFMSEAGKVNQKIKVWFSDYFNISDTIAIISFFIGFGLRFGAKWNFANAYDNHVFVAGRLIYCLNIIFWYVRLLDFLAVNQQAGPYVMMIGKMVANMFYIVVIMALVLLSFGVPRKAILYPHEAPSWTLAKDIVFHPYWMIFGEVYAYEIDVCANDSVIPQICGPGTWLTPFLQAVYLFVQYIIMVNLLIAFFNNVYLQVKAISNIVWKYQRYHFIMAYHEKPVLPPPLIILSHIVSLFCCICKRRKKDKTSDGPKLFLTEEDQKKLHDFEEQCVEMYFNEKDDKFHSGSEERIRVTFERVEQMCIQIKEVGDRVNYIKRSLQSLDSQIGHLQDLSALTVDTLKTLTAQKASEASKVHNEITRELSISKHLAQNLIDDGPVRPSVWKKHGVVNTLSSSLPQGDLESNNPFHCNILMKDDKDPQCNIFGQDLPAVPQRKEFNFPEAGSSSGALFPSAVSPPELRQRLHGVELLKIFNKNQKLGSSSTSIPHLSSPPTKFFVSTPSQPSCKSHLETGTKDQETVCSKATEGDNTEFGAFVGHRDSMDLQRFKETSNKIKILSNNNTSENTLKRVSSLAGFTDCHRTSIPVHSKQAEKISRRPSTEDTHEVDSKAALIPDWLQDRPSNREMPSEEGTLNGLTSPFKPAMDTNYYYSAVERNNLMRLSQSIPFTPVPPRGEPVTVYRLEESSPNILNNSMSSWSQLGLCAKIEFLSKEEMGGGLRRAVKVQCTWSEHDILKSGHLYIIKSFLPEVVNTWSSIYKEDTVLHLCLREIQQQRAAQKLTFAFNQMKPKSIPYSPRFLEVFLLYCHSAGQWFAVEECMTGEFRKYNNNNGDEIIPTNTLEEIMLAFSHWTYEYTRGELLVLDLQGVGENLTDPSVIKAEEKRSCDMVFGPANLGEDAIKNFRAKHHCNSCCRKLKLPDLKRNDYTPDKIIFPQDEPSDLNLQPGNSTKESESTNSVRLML

Orai 1 channels = Orai 1 channels (Homo sapiens, UniProt Q96D31); details: endogenously and exogenously expressed; cited from earlier work
Chain of Orai 1 channels (Q96D31 whole entry): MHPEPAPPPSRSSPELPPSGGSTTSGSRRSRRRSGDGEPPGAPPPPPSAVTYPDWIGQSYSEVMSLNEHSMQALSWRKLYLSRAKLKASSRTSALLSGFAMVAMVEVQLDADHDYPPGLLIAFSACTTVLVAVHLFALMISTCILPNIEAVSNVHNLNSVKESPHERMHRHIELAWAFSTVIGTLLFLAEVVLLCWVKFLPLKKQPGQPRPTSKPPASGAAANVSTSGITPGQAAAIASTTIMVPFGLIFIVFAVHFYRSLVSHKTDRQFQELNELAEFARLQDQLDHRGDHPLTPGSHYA

Orai2 = Orai2 (Homo sapiens, UniProt Q96SN7); details: cited from earlier work
Chain of Orai2 (Q96SN7 whole entry, species assumed): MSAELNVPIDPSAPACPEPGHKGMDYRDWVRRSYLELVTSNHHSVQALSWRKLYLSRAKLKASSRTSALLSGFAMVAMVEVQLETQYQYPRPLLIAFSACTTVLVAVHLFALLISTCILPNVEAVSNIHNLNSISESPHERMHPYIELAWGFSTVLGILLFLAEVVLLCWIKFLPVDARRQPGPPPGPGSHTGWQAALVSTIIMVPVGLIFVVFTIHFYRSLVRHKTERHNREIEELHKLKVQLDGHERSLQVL

Orai3 channels = Orai3 channels (Homo sapiens, UniProt Q9BRQ5); details: up to 200 μM; cited from earlier work
U937 cells [3] = assay: Fura-2 intracellular Ca2+ fluorometry in adhered U937 cells; details: 5 μM tipifarnib, 10 μM FTI-277, 10 μM FTI-2153
Method: as §1, §2
(§3) Therefore, the effects of tipifarnib on intracellular Ca^2+ concentrations in tumor cells were studied in adhered U937 leukemic cells using fura-2 mediated Ca^2+ fluorometry.

U937 cells [4] = details: 5 μM tipifarnib, adhered U937 cells, p<0.001
Method: as §1, §2, §3

Compound: C/C=C(/C)C(=O)O[C@H]1C(C)=C2[C@H]([C@@H]1OC(=O)CCCCCCC)[C@@](C)(OC(C)=O)C[C@H](OC(=O)CCC)[C@@]1(O)[C@H]2OC(=O)[C@@]1(C)O [thapsigargin]
- Cell death in suspension and fibronectin adhered tumor cells (U937 cells [1]): dose dependent increase in cell death
- Difference in viability between suspension and fibronectin-adherent cells (U937 cells [1]): no significant difference

Compound: NCCOB(c1ccccc1)c1ccccc1 [2-APB, 2-aminoethoxydiphenyl borate]
- Amplification of tipifarnib-evoked increase in [Ca2+]i by 2-APB (8226 cells; 8226 cells, 5 μM tipifarnib with 100 μM 2-APB): ~400%
- Amplification of tipifarnib-evoked increase in [Ca2+]i by 2-APB (8226/R5 cells): ~250%
- Effect of modulator on tipifarnib-induced growth inhibition / cell survival (U937 cells [2]): enhanced cell death
- Block of TRPM2 channels at 150 μM (second study) (TRPM2; HEK-293 cells, 150 μM 2-APB): not blocked
- IC50 (TRPM2; heterologously expressed in HEK-293 cells, read-out: IC50 for block of TRPM2 channels): 1 µM
- Block of TRPM7-evoked currents (TRPM7; 100 μM 2-APB): ~25%
- Modulation of Orai1 channels by 2-APB (Orai 1 channels): potentiated at concentrations of 2-APB below 5 μM but inhibited by higher concentrations
- Modulation of Orai2 by 2-APB (Orai2): transient potentiation at concentrations of 2-APB≦20 μM and also blocked by higher concentrations
- Modulation of Orai3 channels by 2-APB (Orai3 channels): potentiated by 2-APB even at 50 μM and do not seem to be blocked by concentrations as high as 200 μM

Compound: [Cl][La]([Cl])[Cl] [La^3+, lanthanum chloride]
- Effect of modulator on tipifarnib-induced growth inhibition / cell survival (U937 cells [2]; U937 cells, MTT, 72 hours, 200 nM La3+, Gd3+ 100, ruthenium red 100 nM, 2-APB 5 μM and 100 μM): statistically significant increase in survival of U937 cells
- Inhibition of TRPM2 channels (TRPM2; La3+ ≦100 μM): not inhibited
- Inhibition of TRPM7 channels at 10 μM (TRPM7): failed to inhibit TRPM7 channels
- Concentration required to inhibit TRPM7 (TRPM7): 1 mM

Compound: [Gd+3] [Gd^3+]
- Inhibition of TRPM7 channels at 10 μM (TRPM7): failed to inhibit TRPM7 channels
- Concentration required to inhibit TRPM7 (TRPM7): 1 mM

Compound: COC(=O)[C@H](CCSC)NC(=O)c1ccc(NC[C@@H](N)CS)cc1-c1ccccc1 [FTI-277]
- Elevation of [Ca2+]i (U937 cells [3]): failed to stimulate elevations in [Ca^2+]i

Compound: tunicamycin
- Cell death in suspension and fibronectin adhered tumor cells (U937 cells [1]): dose dependent increase in cell death
- Difference in viability between suspension and fibronectin-adherent cells (U937 cells [1]): no significant difference

Compound: C[C@H]1CCC/C=C/[C@@H]2C[C@H](O)C[C@H]2[C@H](O)/C=C/C(=O)O1 [Brefeldin A]
- Cell death in suspension and fibronectin adhered tumor cells (U937 cells [1]): dose dependent increase in cell death
- Difference in viability between suspension and fibronectin-adherent cells (U937 cells [1]): no significant difference

Compound: Cn1cncc1[C@@](N)(c1ccc(Cl)cc1)c1ccc2c(c1)c(-c1cccc(Cl)c1)cc(=O)n2C [tipifarnib, Tipifarnib]
- Amplitude of the [Ca2+]i response (8226 cells; 5 µM): 215 ± 17 nM
- Change in [Ca2+]i in 8226 cells, greater than in 8226/R5 cells (8226 cells; 5 μM tipifarnib): > 250%
- Increase in [Ca2+]i relative to vehicle alone (DMSO) (U937 cells [4]): more than 5 fold
